Measurements published in ChEMBL document CHEMBL1153372, “A selective matrix metalloprotease 12 inhibitor for potential treatment of chronic obstructive pulmonary disease (COPD): discovery of (S)-2-(8-(methoxycarbonylamino)dibenzo[b,d]furan-3-sulfonamido)-3-methylbutanoic acid (MMP408)” (J Med Chem, 2009).
Values belong to the compound of their own block, whether it stands above or below them.

How the values were obtained:
Collagenase 3 = Collagenase 3 (Homo sapiens, UniProt P45452); experiment: Inhibition of human recombinant MMP13 expressed in Escherichia coli
[1] = AUC in C57BL/6 mouse at 30 mg/kg, po; type: ADME, organism-based; set-up: dose 30 mg/kg, route oral; settings: plasma
[2] = Metabolic stability in mouse liver microsomes; type: ADME, Microsome
[3] = target: Voltage-gated inwardly rectifying potassium channel KCNH2 (Homo sapiens, UniProt Q12809); experiment: Inhibition of human ERG channel
Voltage-gated inwardly rectifying potassium channel KCNH2, sequence (Q12809 whole entry): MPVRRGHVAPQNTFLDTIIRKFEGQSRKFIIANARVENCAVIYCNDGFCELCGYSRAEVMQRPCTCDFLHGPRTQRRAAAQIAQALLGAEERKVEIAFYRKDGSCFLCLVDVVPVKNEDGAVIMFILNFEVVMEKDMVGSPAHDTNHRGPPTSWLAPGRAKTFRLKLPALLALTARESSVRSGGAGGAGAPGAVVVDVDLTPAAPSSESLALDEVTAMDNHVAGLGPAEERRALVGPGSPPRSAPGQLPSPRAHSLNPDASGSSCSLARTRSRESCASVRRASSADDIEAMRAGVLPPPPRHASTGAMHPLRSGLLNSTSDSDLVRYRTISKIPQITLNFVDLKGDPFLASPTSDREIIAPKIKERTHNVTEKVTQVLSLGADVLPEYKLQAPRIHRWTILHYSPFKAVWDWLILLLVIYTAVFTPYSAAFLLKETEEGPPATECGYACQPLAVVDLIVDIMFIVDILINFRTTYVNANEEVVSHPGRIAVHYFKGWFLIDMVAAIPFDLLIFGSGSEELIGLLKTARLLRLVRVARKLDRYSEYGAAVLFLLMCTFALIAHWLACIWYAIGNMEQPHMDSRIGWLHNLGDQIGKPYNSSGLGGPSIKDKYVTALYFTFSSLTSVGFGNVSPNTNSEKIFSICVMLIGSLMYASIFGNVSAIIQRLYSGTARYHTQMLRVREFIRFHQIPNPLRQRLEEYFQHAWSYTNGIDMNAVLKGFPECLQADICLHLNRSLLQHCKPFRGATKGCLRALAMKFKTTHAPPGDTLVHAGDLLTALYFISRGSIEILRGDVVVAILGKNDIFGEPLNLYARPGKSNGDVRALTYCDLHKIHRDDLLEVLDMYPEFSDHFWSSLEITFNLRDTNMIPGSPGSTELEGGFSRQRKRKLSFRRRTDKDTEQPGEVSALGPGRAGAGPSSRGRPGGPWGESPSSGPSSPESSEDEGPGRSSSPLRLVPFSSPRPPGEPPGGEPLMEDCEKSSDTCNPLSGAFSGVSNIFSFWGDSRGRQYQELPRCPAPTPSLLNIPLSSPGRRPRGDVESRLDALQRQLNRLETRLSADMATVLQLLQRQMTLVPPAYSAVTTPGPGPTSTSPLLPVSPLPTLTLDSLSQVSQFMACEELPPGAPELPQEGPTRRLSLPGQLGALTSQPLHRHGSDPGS

[4] = Oral bioavailability in C57BL/6 mouse at 30 mg/kg; type: ADME, organism-based; settings: in vivo
Interstitial collagenase = target: T1, Interstitial collagenase (Homo sapiens, UniProt P03956); experiment: Inhibition of human MMP1
T1 sequence (P03956 whole entry): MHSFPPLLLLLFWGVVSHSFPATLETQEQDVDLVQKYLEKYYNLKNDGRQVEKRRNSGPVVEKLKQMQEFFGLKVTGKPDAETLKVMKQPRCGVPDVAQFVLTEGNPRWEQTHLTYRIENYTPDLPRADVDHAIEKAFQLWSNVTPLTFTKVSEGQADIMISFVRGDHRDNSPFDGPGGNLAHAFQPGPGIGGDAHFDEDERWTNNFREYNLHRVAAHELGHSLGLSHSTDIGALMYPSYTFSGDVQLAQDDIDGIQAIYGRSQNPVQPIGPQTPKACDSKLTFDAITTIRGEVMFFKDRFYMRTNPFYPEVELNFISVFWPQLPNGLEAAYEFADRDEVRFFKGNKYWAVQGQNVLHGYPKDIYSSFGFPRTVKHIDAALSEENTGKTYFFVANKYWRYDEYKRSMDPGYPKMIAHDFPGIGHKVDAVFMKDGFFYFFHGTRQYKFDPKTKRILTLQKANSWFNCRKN

Mus musculus [5] = experiment: Inhibition of human recombinant MMP-12-induced lung inflammation in C57BL/6 mouse chronic obstructive pulmonary disease model assessed as inhibition of bronchoalveolar lavage fluid inflammation at 30 mg/kg, po qd; type: functional; settings: C57BL/6, Lung
[6] = Clearance in C57BL/6 mouse at 2 mg/kg, iv; type: ADME, organism-based; set-up: dose 2 mg/kg, route intravenous; settings: in vivo
[7] = target: Macrophage metalloelastase (Rattus norvegicus, UniProt Q63341)
Macrophage metalloelastase (Rattus norvegicus, UniProt Q63341), sequence (Q63341 whole entry): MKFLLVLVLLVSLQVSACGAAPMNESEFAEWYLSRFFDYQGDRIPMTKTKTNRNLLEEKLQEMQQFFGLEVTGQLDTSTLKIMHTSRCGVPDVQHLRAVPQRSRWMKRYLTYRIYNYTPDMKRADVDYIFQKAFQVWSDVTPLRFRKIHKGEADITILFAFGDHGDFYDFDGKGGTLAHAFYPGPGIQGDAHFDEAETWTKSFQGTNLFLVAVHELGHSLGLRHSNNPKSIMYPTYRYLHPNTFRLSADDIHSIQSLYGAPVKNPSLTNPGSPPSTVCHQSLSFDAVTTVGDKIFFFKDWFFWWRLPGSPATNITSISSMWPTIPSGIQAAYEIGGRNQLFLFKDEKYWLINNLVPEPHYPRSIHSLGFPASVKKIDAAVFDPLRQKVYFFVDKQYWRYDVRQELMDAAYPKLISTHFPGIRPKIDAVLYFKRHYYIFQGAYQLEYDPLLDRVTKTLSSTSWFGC

[8] = Volume of distribution at steady state in C57BL/6 mouse at 2 mg/kg, iv; type: ADME, organism-based; set-up: dose 2 mg/kg, route intravenous; settings: in vivo, read-out: Vdss
Stromelysin-1 = Stromelysin-1 (Homo sapiens, UniProt P08254); experiment: Inhibition of human MMP3
Stromelysin-1, sequence (P08254 whole entry): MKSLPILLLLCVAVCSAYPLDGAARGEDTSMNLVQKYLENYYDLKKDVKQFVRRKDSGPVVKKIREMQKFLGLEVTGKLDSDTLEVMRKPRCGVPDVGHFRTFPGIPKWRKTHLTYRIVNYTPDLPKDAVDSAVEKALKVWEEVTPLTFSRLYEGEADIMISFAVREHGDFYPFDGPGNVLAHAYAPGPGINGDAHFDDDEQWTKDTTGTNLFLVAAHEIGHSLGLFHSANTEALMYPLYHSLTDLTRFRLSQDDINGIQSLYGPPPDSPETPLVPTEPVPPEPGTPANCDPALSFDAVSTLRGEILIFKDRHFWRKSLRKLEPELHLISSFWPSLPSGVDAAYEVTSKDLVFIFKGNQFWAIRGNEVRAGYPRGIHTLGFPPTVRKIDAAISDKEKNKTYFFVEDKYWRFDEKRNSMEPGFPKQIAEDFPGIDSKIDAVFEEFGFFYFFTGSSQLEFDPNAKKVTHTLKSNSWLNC

Mus musculus [9] = experiment: Inhibition of human recombinant MMP-12-induced lung inflammation in po dosed C57BL/6 mouse chronic obstructive pulmonary disease model assessed as inhibition of lung inflammation dosed twice daily; type: functional; settings: C57BL/6, po, read-out: MED
Matrilysin = target: T2, Matrilysin (Homo sapiens, UniProt P09237); experiment: Inhibition of human MMP7
T2 sequence (P09237 whole entry): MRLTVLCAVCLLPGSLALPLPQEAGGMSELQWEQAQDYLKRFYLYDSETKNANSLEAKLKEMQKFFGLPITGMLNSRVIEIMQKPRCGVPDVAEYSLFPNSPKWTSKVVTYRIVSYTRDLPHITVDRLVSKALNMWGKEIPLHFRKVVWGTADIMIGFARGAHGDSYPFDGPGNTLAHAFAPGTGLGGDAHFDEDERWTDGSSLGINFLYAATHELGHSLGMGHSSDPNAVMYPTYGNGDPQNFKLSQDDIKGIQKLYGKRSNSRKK

[10] = target: Matrix metalloproteinase-14 (Homo sapiens, UniProt P50281); experiment: Inhibition of human MMP14
[11] = target: T3, A disintegrin and metalloproteinase with thrombospondin motifs 5 (Homo sapiens, UniProt Q9UNA0); experiment: Inhibition of human Aggrecanase-2
T3 sequence (Q9UNA0 whole entry): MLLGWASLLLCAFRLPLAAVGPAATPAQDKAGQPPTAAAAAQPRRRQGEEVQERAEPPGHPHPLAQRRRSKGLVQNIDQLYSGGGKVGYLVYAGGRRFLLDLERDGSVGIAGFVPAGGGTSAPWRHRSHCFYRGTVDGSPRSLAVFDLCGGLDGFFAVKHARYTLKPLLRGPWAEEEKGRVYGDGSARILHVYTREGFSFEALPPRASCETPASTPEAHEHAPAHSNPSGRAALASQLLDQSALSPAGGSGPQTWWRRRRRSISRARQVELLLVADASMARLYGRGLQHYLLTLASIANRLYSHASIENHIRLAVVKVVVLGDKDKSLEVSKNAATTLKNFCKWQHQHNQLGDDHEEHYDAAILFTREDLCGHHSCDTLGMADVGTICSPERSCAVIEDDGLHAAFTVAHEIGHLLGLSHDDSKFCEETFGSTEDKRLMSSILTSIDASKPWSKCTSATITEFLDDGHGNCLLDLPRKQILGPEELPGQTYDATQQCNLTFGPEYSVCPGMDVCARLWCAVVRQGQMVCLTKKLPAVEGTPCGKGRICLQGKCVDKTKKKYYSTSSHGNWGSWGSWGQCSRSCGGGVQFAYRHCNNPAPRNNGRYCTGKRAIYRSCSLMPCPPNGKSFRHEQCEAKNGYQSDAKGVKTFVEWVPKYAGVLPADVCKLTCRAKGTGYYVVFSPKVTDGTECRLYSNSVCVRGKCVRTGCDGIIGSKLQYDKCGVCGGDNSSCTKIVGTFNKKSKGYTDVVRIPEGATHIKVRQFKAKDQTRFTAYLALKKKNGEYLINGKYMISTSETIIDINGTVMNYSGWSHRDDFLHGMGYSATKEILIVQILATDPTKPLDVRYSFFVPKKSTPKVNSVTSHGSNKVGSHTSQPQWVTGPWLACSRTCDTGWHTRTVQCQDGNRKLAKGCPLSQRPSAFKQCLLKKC

[12] = target: Matrix metalloproteinase-9 (Homo sapiens, UniProt P14780); experiment: Inhibition of human MMP9
Matrix metalloproteinase-9, sequence (P14780 whole entry): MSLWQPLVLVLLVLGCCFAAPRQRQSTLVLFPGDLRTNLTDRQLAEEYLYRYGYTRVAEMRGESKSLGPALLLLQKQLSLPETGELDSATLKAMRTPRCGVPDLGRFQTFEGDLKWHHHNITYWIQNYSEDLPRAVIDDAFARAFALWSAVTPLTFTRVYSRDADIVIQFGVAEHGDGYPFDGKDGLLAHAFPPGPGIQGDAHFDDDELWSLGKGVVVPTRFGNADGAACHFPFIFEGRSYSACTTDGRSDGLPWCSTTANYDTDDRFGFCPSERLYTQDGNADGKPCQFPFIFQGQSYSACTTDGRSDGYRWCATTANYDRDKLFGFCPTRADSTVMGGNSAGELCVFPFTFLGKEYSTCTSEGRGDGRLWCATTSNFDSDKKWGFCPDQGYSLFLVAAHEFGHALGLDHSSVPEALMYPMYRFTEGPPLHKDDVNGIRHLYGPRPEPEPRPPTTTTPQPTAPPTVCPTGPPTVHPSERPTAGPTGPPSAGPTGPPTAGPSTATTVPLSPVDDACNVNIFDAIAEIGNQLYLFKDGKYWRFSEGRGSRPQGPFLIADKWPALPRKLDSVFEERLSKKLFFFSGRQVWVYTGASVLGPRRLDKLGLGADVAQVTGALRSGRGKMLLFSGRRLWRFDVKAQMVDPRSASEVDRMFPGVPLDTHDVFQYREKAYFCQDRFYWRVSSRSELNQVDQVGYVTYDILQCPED

[13] = Cmax in C57BL/6 mouse at 30 mg/kg, po; type: ADME, organism-based; set-up: dose 30 mg/kg, route oral; settings: in vivo
[14] = Metabolic stability in human liver microsomes; type: ADME, Microsome
[15] = Metabolic stability in monkey liver microsomes; type: ADME, Macaca mulatta, Microsome; settings: rhesus monkey
[16] = Half life in C57BL/6 mouse at 30 mg/kg, po; type: ADME, organism-based; set-up: dose 30 mg/kg, route oral; settings: in vivo
Mus musculus [17] = experiment: Inhibition of human recombinant MMP-12-induced lung inflammation in C57BL/6 mouse chronic obstructive pulmonary disease model assessed as inhibition of bronchoalveolar lavage fluid macrophage level at 30 mg/kg, po qd; type: functional; settings: C57BL/6, Lung
[18] = Metabolic stability in dog liver microsomes; type: ADME, Canis lupus familiaris, Microsome
[19] = Metabolic stability in rat liver microsomes; type: ADME, Microsome
[20] = target: T4, A disintegrin and metalloproteinase with thrombospondin motifs 4 (Homo sapiens, UniProt O75173); experiment: Inhibition of human Aggrecanase-1
T4 sequence (O75173 whole entry): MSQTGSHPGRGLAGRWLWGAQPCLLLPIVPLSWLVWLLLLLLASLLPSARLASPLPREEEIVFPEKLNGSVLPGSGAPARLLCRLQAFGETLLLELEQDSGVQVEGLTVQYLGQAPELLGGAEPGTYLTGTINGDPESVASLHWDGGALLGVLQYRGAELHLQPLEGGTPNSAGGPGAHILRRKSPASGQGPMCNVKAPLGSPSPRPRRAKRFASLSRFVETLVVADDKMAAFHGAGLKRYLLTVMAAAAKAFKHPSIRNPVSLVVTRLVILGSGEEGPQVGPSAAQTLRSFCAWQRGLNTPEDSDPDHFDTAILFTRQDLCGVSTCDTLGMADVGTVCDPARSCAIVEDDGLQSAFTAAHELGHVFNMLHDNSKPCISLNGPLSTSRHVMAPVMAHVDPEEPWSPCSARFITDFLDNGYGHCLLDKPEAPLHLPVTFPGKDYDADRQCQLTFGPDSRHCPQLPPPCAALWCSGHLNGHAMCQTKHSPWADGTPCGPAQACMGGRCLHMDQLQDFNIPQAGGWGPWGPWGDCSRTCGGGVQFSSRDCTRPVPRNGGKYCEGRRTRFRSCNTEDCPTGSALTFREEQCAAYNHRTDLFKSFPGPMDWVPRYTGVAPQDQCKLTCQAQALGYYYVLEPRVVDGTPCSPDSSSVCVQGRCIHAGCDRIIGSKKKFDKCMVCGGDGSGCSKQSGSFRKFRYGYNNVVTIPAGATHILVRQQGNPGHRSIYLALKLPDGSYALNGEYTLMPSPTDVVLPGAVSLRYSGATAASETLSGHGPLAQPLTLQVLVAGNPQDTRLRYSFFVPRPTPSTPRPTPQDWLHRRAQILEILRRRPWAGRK

[21] = target: Macrophage metalloelastase (Mus musculus, UniProt P34960); experiment: Inhibition of mouse recombinant MMP12
Macrophage metalloelastase (Mus musculus, UniProt P34960), sequence (P34960 whole entry): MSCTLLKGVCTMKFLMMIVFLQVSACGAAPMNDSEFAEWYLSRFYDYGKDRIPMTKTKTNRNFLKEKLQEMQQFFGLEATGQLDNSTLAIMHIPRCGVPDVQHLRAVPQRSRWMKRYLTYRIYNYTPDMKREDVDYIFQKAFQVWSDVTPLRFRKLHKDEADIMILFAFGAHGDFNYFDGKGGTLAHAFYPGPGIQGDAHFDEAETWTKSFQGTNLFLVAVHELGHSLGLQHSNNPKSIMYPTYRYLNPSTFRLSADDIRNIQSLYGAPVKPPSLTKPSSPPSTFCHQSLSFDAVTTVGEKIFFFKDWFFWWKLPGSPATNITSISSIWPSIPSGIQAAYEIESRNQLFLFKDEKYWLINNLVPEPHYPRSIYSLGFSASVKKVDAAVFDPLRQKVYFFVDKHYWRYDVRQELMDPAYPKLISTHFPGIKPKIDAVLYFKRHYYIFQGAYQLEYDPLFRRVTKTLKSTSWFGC

[22] = Inhibition of sheep MMP12; set-up: species or system Ovis aries

Compound: CC(C)[C@H](NS(=O)(=O)c1ccc2c(c1)oc1ccc(NS(=O)(=O)CC(F)(F)F)cc12)C(=O)O
IC50 (Collagenase 3): 670 nM

Compound: CC(C)[C@H](NS(=O)(=O)c1ccc2c(c1)oc1ccc(NC(=O)Oc3ccccc3)cc12)C(=O)O
IC50 (Collagenase 3): 220 nM

Compound: CC(C)[C@H](NS(=O)(=O)c1ccc2c(c1)oc1cc(NC(=O)OCCF)ccc12)C(=O)O
IC50 (Collagenase 3): 97 nM

Compound: CC(C)COC(=O)Nc1ccc2oc3cc(S(=O)(=O)N[C@H](C(=O)O)C(C)C)ccc3c2c1
IC50 (Collagenase 3): 10 nM

Compound: Cc1noc(C)c1S(=O)(=O)Nc1ccc2c(c1)oc1ccc(S(=O)(=O)N[C@@H](C(=O)O)C(C)C)cc12
IC50 (Collagenase 3): 34000 nM

Compound: CC(C)[C@H](NS(=O)(=O)c1ccc2c(c1)oc1ccc(NC(=O)NC3CCCC3)cc12)C(=O)O
IC50 (Collagenase 3): 2.1 nM

Compound: CCCOC(=O)Nc1ccc2oc3cc(S(=O)(=O)N[C@H](C(=O)O)C(C)C)ccc3c2c1
IC50 (Collagenase 3): 10 nM

Compound: COC(=O)Nc1ccc2oc3cc(S(=O)(=O)N[C@H](C(=O)O)C(C)C)ccc3c2c1
AUC [1]: 7480 ng·h/mL
half-life [2]: > 1 h
Activity [3]: Not Active
bioavailability [4]: 27%
IC50 (Interstitial collagenase): > 6000 nM
inhibition in vivo at 30 mg/kg (Mus musculus [5]): > 50%
clearance [6]: 17.2 mL/min/kg
IC50 [7]: 320 nM
Vd [8]: 1.9 L/kg
IC50 (Stromelysin-1): 351 nM
minimal effective dose (Mus musculus [9]): 5 mg/kg
IC50 (Collagenase 3): 120 nM
IC50 (Matrilysin): > 22000 nM
IC50 [10]: 1100 nM
IC50 [11]: > 10000 nM
IC50 [12]: 1300 nM
Cmax [13]: 3080 ng/mL
half-life [14]: > 1 h
half-life [15]: > 1 h
half-life [16]: 3 h
inhibition in vivo at 30 mg/kg (Mus musculus [17]): > 70%
half-life [18]: > 1 h
half-life [19]: > 1 h
IC50 [20]: > 5000 nM
IC50 [21]: 160 nM
IC50 [22]: 22.3 nM

Compound: CC(C)[C@H](NS(=O)(=O)c1ccc2c(c1)oc1cc(NC(=O)Oc3ccc(F)cc3)ccc12)C(=O)O
IC50 (Collagenase 3): 361 nM

Compound: CCOC(=O)Nc1ccc2oc3cc(S(=O)(=O)N[C@H](C(=O)O)C(C)C)ccc3c2c1
AUC [1]: 10800 ng·h/mL
bioavailability [4]: 42%
clearance [6]: 19 mL/min/kg
Vd [8]: 1.6 L/kg
IC50 (Collagenase 3): 100 nM
Cmax [13]: 7790 ng/mL
half-life [16]: 3.4 h

The remaining lines, values ahead:

IC50 (Collagenase 3): 2500 nM
Compound: CC(C)[C@@H](NS(=O)(=O)c1ccc2oc3ccccc3c2c1)C(=O)O

IC50 (Collagenase 3): 500 nM
Compound: CC(C)OC(=O)Nc1ccc2c(c1)oc1ccc(S(=O)(=O)N[C@@H](C(=O)O)C(C)C)cc12

IC50 (Collagenase 3): 93 nM
Compound: CC(C)[C@H](NS(=O)(=O)c1ccc2c(c1)oc1ccc(NS(C)(=O)=O)cc12)C(=O)O

IC50 (Collagenase 3): 6000 nM
Compound: CC(C)[C@@H](NS(=O)(=O)c1ccc2oc3cc(NS(=O)(=O)c4ccccc4)ccc3c2c1)C(=O)O

AUC [1]: 245 ng·h/mL
bioavailability [4]: 7%
clearance [6]: 141 mL/min/kg
Vd [8]: 1.9 L/kg
Cmax [13]: 103 ng/mL
half-life [16]: 2 h
Compound: CC(C)[C@@H](NS(=O)(=O)c1ccc2oc3cc(NS(C)(=O)=O)ccc3c2c1)C(=O)O
